Counter-ions that a name gives are not always drawn.
target: GTP-KRAS-G12D:SOS1 (Homo sapiens (Human), UniProt P01116, G12D); experiment: GTP-KRAS-G12D:SOS1 binding inhibition
Description: The IC50 of the compounds was fitted using a nonlinear regression equation with GraphPad Prism 8. The results are presented in Table 2: • Negative control: DMSO • Positive control: 100 μM BI-2852
The following nonlinear fitting formula was used to obtain the IC50 (half-maximal inhibitory concentration) of the compounds:
[formula] • X: logarithm of the compound concentration • Y: 665/615 Ratio

Chain of GTP-KRAS-G12D:SOS1 (P01116-2 other isoform, or with tags, fused parts or gaps G12D): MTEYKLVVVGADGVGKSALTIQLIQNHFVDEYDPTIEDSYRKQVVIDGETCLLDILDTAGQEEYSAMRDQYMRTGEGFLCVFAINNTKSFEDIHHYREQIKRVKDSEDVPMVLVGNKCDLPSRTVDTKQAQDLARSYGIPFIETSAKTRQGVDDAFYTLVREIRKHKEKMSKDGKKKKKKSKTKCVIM

Row | SMILES | IC50 [nM]
1 | Nc1nc2c(-c3c(F)c4c5c(nc(OC[C@@]67CCCN6C[C@H](F)C7)nc5c3F)N3CC5CCC(N5)C3CO4)ccc(F)c2s1 (stereo partly drawn) [Compound 19, 4-((5aS,6S,9R)-1,3-Difluoro-13-(((2R,7aS)-2-fluorotetrahydro-1H-pyrrolizin-7a(5H)-yl)methoxy)-5a,6,7,8,9,10-hexahydro-5H-6,9-epiminoazepino[2′,1′:3,4][1,4]oxazepino[5,6,7-de]quinazolin-2-yl)-7-fluorobenzo[d]thiazol-2-amine dihydrochloride] | 12.7
2 | CCc1cccc2cc(O)cc(-c3c(F)c4c5c(nc(OC[C@@]67CCCN6C[C@H](F)C7)nc5c3F)N3CC5CCC(N5)C3CO4)c12 (single isomer, unassigned) [Compound 5b, (R or S)-4-((5aS,6S,9R)-1,3-difluoro-13-(((2R,7aS)-2-fluorotetrahydro-1H-pyrrolizin-7a(5H)-yl)methoxy)-5a,6,7,8,9,10-hexahydro-5H-6,9-epiminoazepino[2′,1′:3,4][1,4]oxazepino[5,6,7-de]quinazolin-2-yl)-5-ethylnaphthalen-2-ol dihydrochloride] | 2800
3 | Cc1cc(N)nc(-c2c(F)c3c4c(nc(OC[C@@]56CCCN5C[C@H](F)C6)nc4c2F)N2CC4CCC(N4)C2CO3)c1C(F)(F)F (single isomer, unassigned) [10b′, (R or S)-6-((5aS,6S,9R)-1,3-difluoro-13-(((2R,7aS)-2-fluorotetrahydro-1H-pyrrolizin-7a(5H)-yl)methoxy)-5a,6,7,8,9,10-hexahydro-5H-6,9-epiminoazepino[2′,1′:3,4][1,4]oxazepino[5,6,7-de]quinazolin-2-yl)-4-methyl-5-(trifluoromethyl)pyridin-2-amine] | 11.7
4 | Nc1cc2ccccc2c(-c2c(F)c3c4c(nc(OC[C@@]56CCCN5C[C@H](F)C6)nc4c2F)N2CC4CCC(N4)C2CO3)n1 (stereo partly drawn) [Compound 22, 1-((5aS,6S,9R)-1,3-Difluoro-13-(((2R,7aS)-2-fluorotetrahydro-1H-pyrrolizin-7a(5H)-yl)methoxy)-5a,6,7,8,9,10-hexahydro-5H-6,9-epiminoazepino[2′,1′:3,4][1,4]oxazepino[5,6,7-de]quinazolin-2-yl) isoquinolin-3-amine] | 13.4
5 | CCc1cccc2cc(O)cc(-c3c(F)c4c5c(nc(OC[C@]67C[C@@H](F)CN6C[C@@H](COC)C7)nc5c3F)N3CC5CCC(N5)C3CO4)c12 (single isomer, unassigned) [Compound 18a, 4-((2R or 2S, 5aS,6S,9R)-1,3-Difluoro-13-(((2R,6S,7aS)-2-fluoro-6-(methoxymethyl)tetrahydro-1H-pyrrolizin-7a(5H)-yl)methoxy)-5a,6,7,8,9,10-hexahydro-5H-6,9-epiminoazepino[2′,1′:3,4][1,4]oxazepino[5,6,7-de]quinazolin-2-yl)-5-ethylnaphthalen-2-ol dihydrochloride] | 1940

The next lines start with the values.

Row | IC50 [nM] | SMILES
6 | 314 | O=C1CC2(CCc3c(nc(OC[C@@]45CCCN4C[C@H](F)C5)nc3N3C[C@H]4CC[C@@H](C3)N4)C2)c2cc(O)cc(Cl)c21 (single isomer, unassigned) [Compound 6a, (S or R)-4′-((1R,5S)-3,8-Diazabicyclo[3.2.1]octan-3-yl)-4-chloro-2′-(((2R,7aS)-2-fluorotetrahydro-1H-pyrrolizin-7a(5H)-yl)methoxy)-6-hydroxy-5′,8′-dihydro-6′H-spiro[indene-1,7′-quinazolin]-3 (2H)-one dihydrochloride]
7 | 7.21 | CCc1cccc2cc(O)cc(-c3c(F)c4c5c(nc(OC[C@]67C[C@@H](F)CN6C[C@H](CO)C7)nc5c3F)N3CC5CCC(N5)C3CO4)c12 (single isomer, unassigned) [Compound 21b, 4-((2S or 2R,5aS,6S,9R)-1,3-difluoro-13-(((2R,6R,7aS)-2-fluoro-6-(hydroxymethyl)tetrahydro-1H-pyrrolizin-7a(5H)-yl)methoxy)-5a,6,7,8,9,10-hexahydro-5H-6,9-epiminoazepino[2′,1′:3,4][1,4]oxazepino[5,6,7-de]quinazolin-2-yl)-5-ethylnaphthalen-2-ol dihydrochloride]
8 | 4010 | Oc1cc(Cl)c2c(c1)C1(CC2)CCc2c(nc(OC[C@@]34CCCN3C[C@H](F)C4)nc2N2CC3CCC(C2)N3)C1F (single isomer, unassigned) [Compound 8c, (1S or 1R,8′R or 8'S)-4′-((1R,5S)-3,8-diazabicyclo[3.2.1]octan-3-yl)-4-chloro-8′-fluoro-2′-(((2R,7aS)-2-fluorotetrahydro-1H-pyrrolizin-7a(5H)-yl)methoxy)-2,3,5′,8′-tetrahydro-6′H-spiro[indene-1,7′-quinazolin]-6-ol dihydrochloride]
9 | 247 | Cc1cc(N)nc(-c2c(F)c3c4c(nc(OC[C@@]56CCCN5C[C@H](F)C6)nc4c2F)N2C[C@@H]4CCC(N4)[C@@H]2CCO3)c1C(F)(F)F (single isomer, unassigned) [Compound 26a, 6-((2S or 2R,6aS,7S,10R)-1,3-Difluoro-14-(((2R,7aS)-2-fluorotetrahydro-1H-pyrrolizin-7a(5H)-yl)methoxy)-5,6,6a,7,8,9,10,11-octahydro-7,10-epiminoazepino[1′,2′: 5,6][1,5]oxazocino[4,3,2-de]quinazolin-2-yl)-4-methyl-5-(trifluoromethyl)pyridin-2-amine]
10 | 21.3 | COCCc1cccc2cc(O)cc(-c3c(F)c4c5c(nc(OC[C@@]67CCCN6C[C@H](F)C7)nc5c3F)N3CC5CCC(N5)C3CO4)c12 (single isomer, unassigned) [Compound 12b, 4-((2S or 2R,5aS,6S,9R)-1,3-difluoro-13-(((2R,7aS)-2-fluorotetrahydro-1H-pyrrolizin-7a(5H)-yl)methoxy)-5a,6,7,8,9,10-hexahydro-5H-6,9-epiminoazepino[2′,1′:3,4][1,4]oxazepino[5,6,7-de]quinazolin-2-yl)-5-(2-methoxyethyl) naphthalen-2-ol dihydrochloride]
11 | 5.75 | CCc1cccc2cc(O)cc(-c3c(F)c4c5c(nc(OC[C@]67C[C@@H](F)CN6C[C@@H](CO)C7)nc5c3F)N3CC5CCC(N5)C3CO4)c12 (single isomer, unassigned) [Compound 23b, 4-((2S or 2R,5aS,6S,9R)-1,3-difluoro-13-(((2R,6S,7aS)-2-fluoro-6-(hydroxymethyl)tetrahydro-1H-pyrrolizin-7a(5H)-yl)methoxy)-5a,6,7,8,9,10-hexahydro-5H-6,9-epiminoazepino[2′,1′:3,4][1,4]oxazepino[5,6,7-de]quinazolin-2-yl)-5-ethylnaphthalen-2-ol dihydrochloride]
12 | 6.54 | CCc1cccc2cc(O)cc(-c3c(F)c4c5c(nc(OC[C@@]67C[C@H](O)CN6C[C@H](F)C7)nc5c3F)N3CC5CCC(N5)C3CO4)c12 (single isomer, unassigned) [Compound 15b, (2S,6R,7aS)-7a-((((2S or 2R,5aS,6S,9R)-2-(8-ethyl-3-hydroxynaphthalen-1-yl)-1,3-difluoro-5a,6,7,8,9,10-hexahydro-5H-6,9-epiminoazepino[2′,1′:3,4][1,4]oxazepino[5,6,7-de]quinazolin-13-yl)oxy)methyl)-6-fluorohexahydro-1H-pyrrolizin-2-ol dihydrochloride]
